Patent US10173988B2, “N2-(3,4-dimethylphenyl)-6-((4-(p-tolyl)piperazin-1-yl)methyl)-1,3,5-triazine-2,4-diamine” (GLUCOX BIOTECH AB, priority 2015, dated 2019)

How the values were obtained:
human Nox1 = human Nox1 (Homo sapiens (Human), UniProt Q9Y5S8); assay: Nox1 whole cell luminescence assay (luminol, PMA-stimulated); format: cell-based; conditions: CHO cells stably expressing human Nox1
Procedure: CHO cells modified to stably express human Nox1 were grown in DMEM/F12 gibco 31331 containing 10% FBS and 1% pen/strep at 37° C. in air with 5% CO2. Cells were collected from cultures by Trypsin mediated detachment of adherent cells.
A luminescence assay was used that measures the production of reactive oxygen species in whole cells. Luminol reacts with superoxide and emits light and light is measured with luminometer (Synergy/2 microplate reader, BioTek).
Inhibitors were diluted in a compound plate in DMSO (100%) then transferred to Hanks buffer solution and in assay plate DMSO were 2% in all the wells.
Assay procedure, final well volume 100 μl, 96-well plate: Inhibitors (20 μl) were added, then cell suspension was (100 000 cells/well), incubate 37° C. for 30 min, add PMA (0.9 μM/well) to Luminol reaction mix (Luminol 0.1 mM/well and HRP 3.2 U/well) then this stimulation mix into wells. The plate were then immediately read (steps 5 min each reading) and for 1 h. Data was calculated for the linear part of the curve and IC50 determined.
Compounds (Nox inhibitors) were diluted at 3× working concentration and titrated from 200 μM to 0.003 μM in 11 steps

Nox2 = Nox2 (Homo sapiens (Human), UniProt P04839); assay: Nox2 whole cell assay in isolated neutrophils (isoluminol, PMA-stimulated); format: cell-based; conditions: PMA 30 ng/ml
Excerpt: Cells: Human blood was purchased in buffy coat, prepared the same day for isolation of neutrophils, from Labjoy AB, Lund, Sweden. Blood components were separated by density gradient centrifugation using Ficoll-Paque Plus. Plasma, PBMCs and Ficoll were removed before erythrocytes were removed by dextran sedimentation. Remaining erythrocytes were lyses before neutrophils were washed and counted. Isolated neutrophils were kept on ice resuspended in HBSS without Mg and Ca until assayed.
Buffers: The isoluminol buffer contained Isoluminol (0.175 mg/ml) and HRP fraction II (1.75 U/ml). The buffer was prepared by diluting these ingredients at 4× working concentration in HBSS.
Procedures: Compounds (Nox inhibitors) were diluted at 4× working concentration and titrated from 100 μM to 0.006 μM in 1:4 steps. PMA was diluted in Isoluminol buffer at 4× working concentration for a final concentration of 30 ng/ml. […] 25 μl diluted compound or control/well were added to a white 96-well plate. 25 μl/well of PMA diluted in Isoluminol buffer was added to each well. To non-stimulated control wells only Isoluminol buffer was added. Neutrophils were washed and resuspended at 2×10^6 cells/ml in HBSS with Mg and Ca just before adding 50 μl of the neutrophil cell suspension/well, which was followed by immediate initiation of luminescence measurement. Luminescence was measured using a FluoStar Optima (BMG Labtech). Graphs were performed using Prism 5 for Mac OS X (Prism 5.0 Software, San Diego Calif. USA).

Nox4 = Nox4 (Homo sapiens (Human), UniProt Q9NPH5); assay: Nox4 whole cell assay (Amplex red, hydrogen peroxide); format: cell-based; conditions: HEK (CJ Nox4) cells stably expressing Nox4
Procedure: Cells: HEK (CJ Nox4) stably expressing Nox4 was purchased from Redoxis AB (Lund). The adherent cells were cultivated in RPMI 1640 with L-Glutamine were supplemented with FBS (10%), penicillin (10 U/ml) streptomycin (100 μg/ml) and neomycin (200 μg/ml) at 37° C. in air with 5% CO^2.
Hydrogen peroxide produced by Nox4 was measured (fluorescence emission: 590 and excitation: 544) using Amplex red (Molecular Probes) in Fluorescan Ascent plate reader Type 374. Cells were collected from cultures by Trypsin mediated detachment of adherent cells. Cells were seeded in 96-well plates at a density of 50 000 cells in […] assay volume. […] Nox4 activity was measured up to 100 min with readings every minute. […] Y-axes: turnover of hydrogen peroxide; x-axes: concentration of inhibitor. Inhibitors were diluted in a compound plate in DMSO (100%) then transferred to Hanks buffer solution and in assay plate DMSO were 2% in all the wells.
Compounds (Nox inhibitors) were diluted at 3× working concentration and titrated from 200 μM to 0.003 μM in 11 steps.

[1] = Caco-2 permeability assay; format: in vitro ADME; conditions: human, Caco-2; for efflux ratio at 60 min: Papp (b-a) divided by Papp (a-b); for Papp A→B at 60 min: apical to basolateral; for Papp A→B at 60 min / Papp B→A at 60 min: pH 7.4, 37° C., test concentration 1 to 10 μM; for Papp B→A at 60 min: basolateral to apical
Procedure: (§1) Caco-2 membrane permeability was performed in accordance with published protocols. [Hubatch] Caco-2 cell monolayers (passage 94-105) were grown on permeable filter support and used for transport study on day 21 after seeding. Prior to the experiment a drug solution of 10 μM was prepared and warmed to 37° C.
(§2) The Caco-2 filters were washed with prewarmed HBSS prior to the experiment, and thereafter experiment was started by applying the donor solution on the apical side or basolateral side, depending on which direction that was monitored. The transport experiments were carried out at pH 7.4 in both the apical and basolateral chambers. The experiments were performed at 37° C. and with a stirring rate of 500 rpm. The receiver compartment was sampled at 15, 30, and 60 min, and at 60 min also a final sample from the donor chamber was taken in order to calculate the mass balance of the compound. Directly after the termination of experiment the filter inserts were washed with prewarmed HBSS and the membrane integrity was checked. This was performed by trans-epithelial electrical resistance (TEER) measurement. The experiment was validated by inclusion of the para-cellular marker 14Cmannitoland monitoring its permeability during the experiments. Mannitol is a para-cellular marker used for cell monolayer integrity measurements.
(§3) Test compounds were thus added to either the apical or basolateral side of the Caco-2 cell layer, to measure permeability in the absorptive (apical to basolateral, Papp (a-b)) or secretive (basolateral to apical Papp (a-b) directions, respectively. The efflux is calculated as Papp (b-a) divided by Papp (a-b). The results are presented in Table 3.

Caco-2 cell monolayers = assay: Caco-2 permeability assay; format: in vitro ADME; conditions: mass balance
Procedure: as §1, §2, §3

Nox2, sequence (P04839 2-570): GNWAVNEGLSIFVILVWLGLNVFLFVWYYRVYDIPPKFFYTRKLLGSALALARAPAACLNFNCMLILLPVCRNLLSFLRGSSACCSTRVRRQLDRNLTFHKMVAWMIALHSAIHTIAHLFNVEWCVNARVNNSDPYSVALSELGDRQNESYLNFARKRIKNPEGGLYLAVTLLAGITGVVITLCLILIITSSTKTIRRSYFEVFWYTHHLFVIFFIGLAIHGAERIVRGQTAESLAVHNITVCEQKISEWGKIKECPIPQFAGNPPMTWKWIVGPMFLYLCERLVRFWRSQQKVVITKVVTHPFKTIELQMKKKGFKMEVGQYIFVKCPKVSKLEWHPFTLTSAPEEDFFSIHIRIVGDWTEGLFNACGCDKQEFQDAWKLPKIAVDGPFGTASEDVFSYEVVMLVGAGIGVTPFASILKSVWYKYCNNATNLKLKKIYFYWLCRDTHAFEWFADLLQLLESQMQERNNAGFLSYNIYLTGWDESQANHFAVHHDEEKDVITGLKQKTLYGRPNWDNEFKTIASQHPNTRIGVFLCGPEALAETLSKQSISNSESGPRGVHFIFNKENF
Nox2, sequence (P13498 2-195 partner): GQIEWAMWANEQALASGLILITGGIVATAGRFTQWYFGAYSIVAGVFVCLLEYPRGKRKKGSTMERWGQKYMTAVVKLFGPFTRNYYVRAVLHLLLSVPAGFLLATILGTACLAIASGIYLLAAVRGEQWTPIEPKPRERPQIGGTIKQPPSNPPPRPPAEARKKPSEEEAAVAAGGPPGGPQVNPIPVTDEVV
human Nox1, sequence (Q9Y5S8 whole entry): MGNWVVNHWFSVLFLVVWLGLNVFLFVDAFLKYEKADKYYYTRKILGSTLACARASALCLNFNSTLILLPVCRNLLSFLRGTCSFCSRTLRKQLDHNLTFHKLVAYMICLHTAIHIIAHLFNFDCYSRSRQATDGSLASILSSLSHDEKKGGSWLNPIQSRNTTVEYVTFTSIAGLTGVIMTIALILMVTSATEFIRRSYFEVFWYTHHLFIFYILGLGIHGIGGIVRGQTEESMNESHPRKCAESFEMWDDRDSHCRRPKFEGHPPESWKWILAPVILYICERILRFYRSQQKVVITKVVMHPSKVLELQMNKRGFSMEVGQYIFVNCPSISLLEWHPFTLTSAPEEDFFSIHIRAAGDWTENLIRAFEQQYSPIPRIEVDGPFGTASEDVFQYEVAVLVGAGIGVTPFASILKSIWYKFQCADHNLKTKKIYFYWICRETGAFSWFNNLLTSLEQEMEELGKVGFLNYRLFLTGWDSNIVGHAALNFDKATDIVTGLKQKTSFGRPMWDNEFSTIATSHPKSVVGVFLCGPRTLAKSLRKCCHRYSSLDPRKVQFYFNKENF
human Nox1, sequence (P13498 2-195 partner): as the sequence (P13498 2-195 partner) above
Nox4, sequence (Q9NPH5 whole entry, species assumed): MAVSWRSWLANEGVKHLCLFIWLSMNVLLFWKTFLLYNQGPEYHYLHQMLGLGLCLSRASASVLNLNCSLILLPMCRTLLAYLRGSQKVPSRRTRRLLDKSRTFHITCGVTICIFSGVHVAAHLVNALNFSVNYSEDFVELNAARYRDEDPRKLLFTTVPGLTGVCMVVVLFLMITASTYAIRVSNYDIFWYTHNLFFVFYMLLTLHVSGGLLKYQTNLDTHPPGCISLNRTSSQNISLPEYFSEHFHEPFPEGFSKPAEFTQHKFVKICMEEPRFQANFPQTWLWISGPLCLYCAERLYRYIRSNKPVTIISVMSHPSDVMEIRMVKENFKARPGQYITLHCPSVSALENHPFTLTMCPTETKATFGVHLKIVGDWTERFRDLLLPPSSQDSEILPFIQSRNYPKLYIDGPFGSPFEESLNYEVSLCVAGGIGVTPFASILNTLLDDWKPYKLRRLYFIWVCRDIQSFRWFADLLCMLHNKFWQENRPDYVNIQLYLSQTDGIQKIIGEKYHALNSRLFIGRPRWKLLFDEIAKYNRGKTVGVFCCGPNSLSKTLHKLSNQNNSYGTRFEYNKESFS
Nox4, sequence (P13498 2-195 partner, species assumed): as the sequence (P13498 2-195 partner) above

| SMILES | IC50 (human Nox1) [µM] | IC50 (Nox2) [µM] | IC50 (Nox4) [µM] | efflux ratio at 60 min [1] | Papp A→B at 60 min [1] [×10⁻⁶ cm/s] | Papp B→A at 60 min [1] [×10⁻⁶ cm/s] | MR (Caco-2 cell monolayers; a-b direction) [%] | MR (Caco-2 cell monolayers; b-a direction) [%] |
| --- | --- | --- | --- | --- | --- | --- | --- | --- |
| COc1cccc(N2CCN(Cc3nc(N)nc(Nc4ccc(C)c(C)c4)n3)CC2)c1 [A, N^2-(3,4-dimethylphenyl)-6-((4-(3-methoxyphenyl)piperazin-1-yl)methyl)-1,3,5-triazine-2,4-diamine] | 66 | 1.68 | 1.68 | 1 | 35 ± 4 | 34 ± 4 | 17 | 12 |
| COc1cccc(N2CCN(Cc3nc(N)nc(Nc4ccc(C)c(Cl)c4)n3)CC2)c1 [B, N^2-(3-chloro-4-methylphenyl)-6-((4-(3-methoxyphenyl)piperazin-1-yl)methyl)-1,3,5-triazine-2,4-diamine] | 22 | 17 | 0.84 | 54 | 0.8 ± 0.2 | 43 ± 5 | 41 | 41 |
| Cc1cccc(N2CCN(Cc3nc(N)nc(Nc4ccc(C)c(C)c4)n3)CC2)c1 [C, N^2-(3,4-dimethylphenyl)-6-((4-(m-tolyl)piperazin-1-yl)methyl)-1,3,5-triazine-2,4-diamine] | 162 | 59 | 1.68 | 37 | 2.4 ± 0.1 | 89 ± 27 | 37 | 67 |

Next, values leading:

| IC50 (human Nox1) [µM] | IC50 (Nox2) [µM] | IC50 (Nox4) [µM] | efflux ratio at 60 min [1] | Papp A→B at 60 min [1] [×10⁻⁶ cm/s] | Papp B→A at 60 min [1] [×10⁻⁶ cm/s] | MR (Caco-2 cell monolayers; a-b direction) [%] | MR (Caco-2 cell monolayers; b-a direction) [%] | SMILES |
| --- | --- | --- | --- | --- | --- | --- | --- | --- |
| 200 | 15 | 1.68 | 17 | 1.9 ± 0.2 | 33 ± 11 | 40 | 16 | Cc1ccc(Nc2nc(N)nc(CN3CCN(c4ccc(Cl)cc4)CC3)n2)cc1C [D, 6-((4-(4-chlorophenyl)piperazin-1-yl)methyl)-N^2-(3,4-dimethylphenyl)-1,3,5-triazine-2,4-diamine] |
| 66 | – | – | – | 12 ± 1.6 | 43 ± 5.8 | 13 | 14 | Cc1ccc(N2CCN(Cc3nc(N)nc(Nc4ccc(C)c(C)c4)n3)CC2)cc1 [inventive, N^2-(3,4-dimethylphenyl)-6-((4-(p-tolyl)piperazin-1-yl)methyl)-1,3,5-triazine-2,4-diamine] |
